Assays:
aurora B = aurora B (Homo sapiens, UniProt Q96GD4); test: radioisotope-based P81 filter-binding assay, aurora B kinase; format: biochemical; conditions: averaged from two independent dose-response curves; read-out: Enzyme assay IC50 Aur B
Protocol: (§1) Compounds of formula (I)-(IV) were evaluated for abilities in inhibiting protein kinases aurora B and FLT-3 activity using radioisotope-based P81 filter-binding assay (Table 1).

FLT-3 = target: T1, FLT-3 (Homo sapiens, UniProt P36888); test: radioisotope-based P81 filter-binding assay, FLT-3 kinase; format: biochemical; conditions: averaged from two independent dose-response curves; read-out: Enzyme assay IC50 FLT-3
T1 sequence (P36888 27-993): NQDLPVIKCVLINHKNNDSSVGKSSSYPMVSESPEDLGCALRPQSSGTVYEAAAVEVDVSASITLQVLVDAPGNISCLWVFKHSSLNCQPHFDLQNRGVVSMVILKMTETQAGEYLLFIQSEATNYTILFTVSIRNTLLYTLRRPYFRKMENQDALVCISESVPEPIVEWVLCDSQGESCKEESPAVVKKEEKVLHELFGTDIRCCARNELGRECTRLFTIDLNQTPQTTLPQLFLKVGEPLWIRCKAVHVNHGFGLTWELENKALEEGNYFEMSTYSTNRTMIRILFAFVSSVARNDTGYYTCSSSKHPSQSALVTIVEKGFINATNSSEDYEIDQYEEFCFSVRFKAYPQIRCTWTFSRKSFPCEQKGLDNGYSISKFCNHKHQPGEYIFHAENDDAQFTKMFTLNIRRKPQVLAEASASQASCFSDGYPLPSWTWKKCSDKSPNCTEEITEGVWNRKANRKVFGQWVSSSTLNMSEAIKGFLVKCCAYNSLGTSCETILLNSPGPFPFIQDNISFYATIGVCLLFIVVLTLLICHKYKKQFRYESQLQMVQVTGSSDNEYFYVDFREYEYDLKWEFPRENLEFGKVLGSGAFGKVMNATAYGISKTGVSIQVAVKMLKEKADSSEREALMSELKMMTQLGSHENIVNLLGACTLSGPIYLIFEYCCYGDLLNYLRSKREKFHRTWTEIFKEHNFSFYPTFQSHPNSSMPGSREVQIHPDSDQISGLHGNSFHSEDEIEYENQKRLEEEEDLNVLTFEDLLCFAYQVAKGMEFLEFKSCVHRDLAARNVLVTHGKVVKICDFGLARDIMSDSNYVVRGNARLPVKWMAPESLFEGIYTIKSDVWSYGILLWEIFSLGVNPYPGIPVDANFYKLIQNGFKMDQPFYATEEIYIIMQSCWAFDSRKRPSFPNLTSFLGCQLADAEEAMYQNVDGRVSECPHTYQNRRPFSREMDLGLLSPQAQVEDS
Protocol: as §1

[1] = tested on: HepG2 human hepatocellular carcinoma cells; test: anti-proliferation, SRB colorimetric assay, HepG2; format: cell-based; conditions: concentration required for 50% growth inhibition, read-out: IC50 (μM, mean ± S.D.)
Text: HCT116 human colorectal carcinoma cells (Table 3), HepG2 human hepatocellular carcinoma cells (Table 4), and MV4-11 human acute myelomonocytic leukemia cells (Table 5).

[2] = tested on: HCT116 human colorectal carcinoma cells; test: anti-proliferation, SRB colorimetric assay, HCT116; format: cell-based; conditions: HCT-116, concentration required for 50% growth inhibition, read-out: IC50 (μM, mean ± S.D.)
Protocol: (§2) HCT116 human colorectal carcinoma cells (Table 3), HepG2 human hepatocellular carcinoma cells (Table 4), and MV4-11 human acute myelomonocytic leukemia cells (Table 5). Cells were treated with the test compound and the concentration required for 50% growth inhibition (IC50) determined by sulfomodamine B (SRB) colorimetric assay.

[3] = tested on: A549 human lung carcinoma cells; test: anti-proliferation, SRB colorimetric assay, A549; format: cell-based; conditions: concentration required for 50% growth inhibition, read-out: IC50 (μM, mean ± S.D.)
[4] = tested on: MV4-11 human acute myelomonocytic leukemia cells; test: anti-proliferation, SRB colorimetric assay, MV4-11; format: cell-based; conditions: concentration required for 50% growth inhibition
Protocol: as §2

Huh7 cancer cell line = test: in vivo efficacy, Huh7 xenografts in SCID mice; conditions: established xenografts of Huh7 cancer cell line in female SCID mice

Sequence of aurora B (Q96GD4 whole entry): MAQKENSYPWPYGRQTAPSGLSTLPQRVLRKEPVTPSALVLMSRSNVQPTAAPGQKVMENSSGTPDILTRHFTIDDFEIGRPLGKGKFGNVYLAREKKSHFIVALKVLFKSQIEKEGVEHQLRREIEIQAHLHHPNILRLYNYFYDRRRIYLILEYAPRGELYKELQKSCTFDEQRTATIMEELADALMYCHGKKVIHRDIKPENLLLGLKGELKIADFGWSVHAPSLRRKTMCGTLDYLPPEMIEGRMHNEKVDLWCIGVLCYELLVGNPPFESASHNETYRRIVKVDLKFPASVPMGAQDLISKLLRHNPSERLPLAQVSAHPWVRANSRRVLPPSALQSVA

SMILES	IC50 (aurora B) [nM]	IC50 (FLT-3) [nM]	IC50 [1] [µM]	melting point	IC50 [2] [µM]	IC50 [3] [µM]	IC50 [4] [nM]	tumor size (Huh7 cancer cell line)
Cc1[nH]c(/C=C2\C(=O)Nc3cc(NC(=O)NC(=O)c4ccccc4F)ccc32)c(C)c1CCC(=O)O [D54, (Z)-3-(5-((6-(3-(2-fluorobenzoyl)ureido)-2-oxoindolin-3-ylidene)methyl)-2,4-dimethyl-1H-pyrrol-3-yl)propanoic acid]	1.5	12.4	0.47 ± 0.1	267 to 272 °C (dec.)	0.97 ± 0.21	0.11 ± 0.01		
Cc1[nH]c(/C=C2\C(=O)Nc3cc(NC(=O)NC(=O)c4ccc(F)cc4)ccc32)c(C)c1CCC(=O)O [D55, (Z)-3-(5-((6-(3-(4-fluorobenzoyl)ureido)-2-oxoindolin-3-ylidene)methyl)-2,4-dimethyl-1H-pyrrol-3-yl)propanoic acid]	1.8	45.7	0.21 ± 0.02	> 300 °C	0.45 ± 0.02	0.08 ± 0.01		
Cc1[nH]c(/C=C2\C(=O)Nc3cc(NC(=O)NC(=O)c4ccc(F)cc4F)ccc32)c(C)c1CCC(=O)O [D56, (Z)-3-(5-((6-(3-(2,4-difluorobenzoyl)ureido]-2-oxoindolin-3-ylidene)methyl)-2,4-dimethyl-1H-pyrrol-3-yl)propanoic acid]	2.1	2.7	0.13 ± 0.06	280 to 285 °C (dec.)	0.32 ± 0.07	0.1 ± 0.01		
CCN(CC)CCNC(=O)c1c(C)[nH]c(/C=C2\C(=O)Nc3cc(NC(=O)NC(=O)c4ccc(OC)cc4F)ccc32)c1C [D69, (Z)—N-(2-(diethylamino)ethyl)-5-((6-(3-(2-fluoro-4-methoxybenzoyl)ureido)-2-oxoindolin-3-ylidene)methyl)-2,4-dimethyl-1H-pyrrole-3-carboxamide]	7.6	4.4	0.88 ± 0.04	275 to 280 °C (dec.)	0.91 ± 0.01	0.46 ± 0.07		
COc1ccc(-c2c[nH]cc(C(=O)Nc3ccc4c(c3)NC(=O)/C4=C\c3ccc[nH]3)c2=O)cc1 [D128, (Z)—N-(3-((1H-pyrrol-2-yl)methylene)-2-oxoindolin-6-yl)-5-(4-methoxyphenyl)-4-oxo-1,4-dihydropyridine-3-carboxamide]	10.2	24.9	0.81 ± 0.04	> 300 °C	0.63 ± 0.09	0.62 ± 0.06	25	
O=C1Nc2cc(NC(=O)c3c[nH]cc(-c4ccc(Cl)cc4)c3=O)ccc2/C1=C/c1ccc[nH]1 [D130, (Z)—N-(3-((1H-pyrrol-2-yl)methylene)-2-oxoindolin-6-yl)-5-(4-chlorophenyl)-4-oxo-1,4-dihydropyridine-3-carboxamide]	53.8	7.6	0.67 ± 0.05	> 300 °C	0.57 ± 0.04	< 0.1	4.38	
Cc1ccc(-c2c[nH]cc(C(=O)Nc3ccc4c(c3)NC(=O)/C4=C\c3ccc[nH]3)c2=O)cc1 [D131, (Z)—N-(3-((1H-pyrrol-2-yl)methylene)-2-oxoindolin-6-yl)-5-p-tolyl-4-oxo-1,4-dihydropyridine-3-carboxamide]	63.2	74.7	0.71 ± 0.07	> 300 °C	0.56 ± 0.03	0.52 ± 0.03	18.4	
O=C1Nc2cc(NC(=O)c3c[nH]cc(-c4cccc(Cl)c4)c3=O)ccc2/C1=C/c1ccc[nH]1 [D132, (Z)—N-(3-((1H-pyrrol-2-yl)methylene)-2-oxoindolin-6-yl)-5-(3-chlorophenyl)-4-oxo-1,4-dihydropyridine-3-carboxamide]	161	148	0.55 ± 0.03	> 300 °C	0.63 ± 0.03	0.5 ± 0.01	9.1	
O=C1Nc2cc(NC(=O)c3c[nH]cc(-c4ccc(C(F)(F)F)cc4)c3=O)ccc2/C1=C/c1ccc[nH]1 [D133]	348	100	0.73 ± 0.03	> 300 °C	0.65 ± 0.04	0.45 ± 0.08	5.9	
O=C1Nc2cc(NC(=O)c3c[nH]cc(-c4ccccc4F)c3=O)ccc2/C1=C/c1ccc[nH]1 [D134, (Z)—N-(3-((1H-pyrrol-2-yl)methylene)-2-oxoindolin-6-yl)-4-oxo-5-(2-fluorophenyl)-1,4-dihydropyridine-3-carboxamide]	25.5	100	0.6 ± 0.07	> 300 °C	0.73 ± 0.09	0.46 ± 0.06	13.2	suppressed the tumor size
O=C1Nc2cc(NC(=O)c3c[nH]cc(-c4ccc(F)cc4F)c3=O)ccc2/C1=C/c1ccc[nH]1 [D135, (Z)—N-(3-((1H-pyrrol-2-yl)methylene)-2-oxoindolin-6-yl)-4-oxo-5-(2,4-difluorophenyl)-1,4-dihydropyridine-3-carboxamide]	64.5	50.1	0.56 ± 0.16	> 300 °C	0.78 ± 0.1	0.59 ± 0.09	4.25	
O=C1Nc2cc(NC(=O)c3c[nH]cc(-c4cc(F)cc(F)c4)c3=O)ccc2/C1=C/c1ccc[nH]1 [D136, (Z)—N-(3-((1H-pyrrol-2-yl)methylene)-2-oxoindolin-6-yl)-4-oxo-5-(3,5-difluorophenyl)-1,4-dihydropyridine-3-carboxamide]	123	> 1000	0.6	> 300 °C	0.6	0.6		
